Assay results as given in patent US20250041302A1, “PROLYL HYDROXYLASE DOMAIN INHIBITOR FOR TREATING HEMORRHAGIC OR BURN SHOCK” (THE GOVERNMENT OF THE UNITED STATES, AS REPRESENTED BY THE …, priority 2022, published 2025).
“Also recorded” adds a separate entry of the source.

Tested on: swine model of 40% total burned surface area burn
Assay: Porcine burn shock pilot study, 40% total burned surface area contact burn
Type: in vivo, Juvenile female Yorkshire swine
Conditions: for BE / HCO3 / Lactate / TCO2 / arterial blood gas pH / pCO2 / pO2 / sO2: 4 Hours after Burn; for Alanine Aminotransferase / Albumin / Alkaline Phosphatase / Amylase / Aspartate Aminotransferase / BUN / Basophils / Bicarbonate / Calculated Osmolality / Cellular Hemoglobin (Optical) / Cellular Hemoglobin Concentration Mean (Optical) / Chloride / Eosinophils / Glucose / Hematocrit / Hemoglobin / Hemoglobin Distribution Width / Large Unstained Cells / Lipase / Lymphocytes / Mean Corpuscular Hemoglobin / Mean Corpuscular Hemoglobin Concentration / Mean Corpuscular Volume / Mean Platelet Volume / Monocytes / Myoglobin / Neutrophils / Platelets / Potassium / Red Blood Cells / Red Cell Distribution Width / Sodium / Total Protein / White Blood Cells / Creatinine: 24 Hours after Burn; for mortalities: n=4, over 48 hours
Protocol: Using n=12 animals, we performed a pilot study of the effects of HIF-1α pathway activation with MK-8617 on survival time and volume of resuscitation fluid required to maintain urine output over 48 hours in a swine model of 40% total burned surface area mixed deep and partial thickness contact burn. Animals were block randomized into three groups, including control (vehicle only; n=4), low-dose (15 mg; n=4) and high-dose (50 mg; n=4). MK-8617 for injection was dissolved in a 45:5:50 mixture of polyethylene glycol (molecular weight: 400 daltons): dimethylsulfoxide: saline with pH adjusted to 8.4. Juvenile female Yorkshire swine weighing between 35-50 kg underwent open surgical splenectomy, then were allowed to recover for a minimum of two weeks before instrumentation with central venous and arterial lines and experimental burn. Animals received an injection of MK-8617 or vehicle at 30 minutes after burn followed by a standard-of-care crystalloid resuscitation with lactated Ringer's solution starting at 60 minutes after burn-we used a custom-built, fully closed-loop, automated resuscitation system based on the Burn Navigator to deliver goal-directed resuscitation with a target urine output of 30-50 ml/hr. Time to mortality, total fluid volumes infused, urine output generated, and serological measures of organ function were measured. Investigators remained blinded to treatment allocations until after data analysis was complete. Survival was analyzed using a log-rank test followed by a Tukey's studentized range multiple comparisons adjustment. Serological measures were analyzed using a linear model with baseline correction followed by a Tukey-Kramer multiple comparisons adjustment.

[1] = low and high dose versus control

COc1ccc(C(NC(=O)c2cnc(-c3cccnn3)nc2O)c2ccc(OC)cc2)cc1 [MK-8617, N-[Bis(4-methoxyphenyl)methyl]-4-hydroxy-2-(pyridazin-3-yl)pyrimidine-5-carboxamide]
BE (High Dose (50 mg)): 3.75 ± 2.99 mmol/L | HCO3 (High Dose (50 mg)): 28.18 ± 2.44 mmol/L | Lactate (High Dose (50 mg)): 6.98 ± 3.09 mmol/L | TCO2 (High Dose (50 mg)): 29.50 ± 2.52 mmol/L | arterial blood gas pH (High Dose (50 mg)): 7.43±0.05 | pCO2 (High Dose (50 mg)): 42.25 ± 4.07 mmHg | pO2 (High Dose (50 mg)): 209.00 ± 2.45 mmHg | sO2 (High Dose (50 mg)): 100 ± 0% | Alanine Aminotransferase (High Dose (50 mg)): 50.00 ± 10.23 U/L | Albumin (High Dose (50 mg)): 0.55 ± 0.19 g/dL | Alkaline Phosphatase (High Dose (50 mg)): 159.75 ± 39.11 U/L | Amylase (High Dose (50 mg)): 58577 ± 41616 U/L | Aspartate Aminotransferase (High Dose (50 mg)): 98.75 ± 37.56 U/L | BUN (High Dose (50 mg)): 18.75 ± 1.65 mg/dL | Basophils (High Dose (50 mg)): 0.13 ± 0.05% | Bicarbonate (High Dose (50 mg)): 26.90 ± 1.65 mmol/L | Calculated Osmolality (High Dose (50 mg)): 290.00 ± 9.49 | Cellular Hemoglobin (Optical) (High Dose (50 mg)): 16.3 ± 0.66 pg | Cellular Hemoglobin Concentration Mean (Optical) (High Dose (50 mg)): 31.30 ± 0.86 g/dL | Chloride (High Dose (50 mg)): 108.25 ± 4.99 mmol/L | Eosinophils (High Dose (50 mg)): 0.18 ± 0.05% | Glucose (High Dose (50 mg)): 69.50 ± 3.70 mg/dL | Hematocrit (High Dose (50 mg)): 29.93 ± 2.01% | Hemoglobin (High Dose (50 mg)): 9.60 ± 0.51 g/dL | Hemoglobin Distribution Width (High Dose (50 mg)): 1.78 ± 0.15 g/dL | Large Unstained Cells (High Dose (50 mg)): 0.88 ± 0.17% | Lipase (High Dose (50 mg)): 155.67 ± 71.84 U/L | Lymphocytes (High Dose (50 mg)): 38.78 ± 9.52% | Mean Corpuscular Hemoglobin (High Dose (50 mg)): 16.75 ± 0.60 pg | Mean Corpuscular Hemoglobin Concentration (High Dose (50 mg)): 32.18 ± 0.59 g/dL | Mean Corpuscular Volume (High Dose (50 mg)): 52.05 ± 0.97 fL | Mean Platelet Volume (High Dose (50 mg)): 11.53 ± 1.06 fL | Monocytes (High Dose (50 mg)): 1.98 ± 0.71% | Myoglobin (High Dose (50 mg)): 502.50 ± 148.23 ng/mL | Neutrophils (High Dose (50 mg)): 58.05 ± 9.81% | Platelets (High Dose (50 mg)): 363 ± 32 10³ cells/µL | Potassium (High Dose (50 mg)): 4.58 ± 0.85 mmol/L | Red Blood Cells (High Dose (50 mg)): 5.75 ± 0.47 10^6 cells/μL | Red Cell Distribution Width (High Dose (50 mg)): 15.55 ± 0.61% | Sodium (High Dose (50 mg)): 145.50 ± 4.51 mmol/L | Total Protein (High Dose (50 mg)): 4.38 ± 0.78 g/dL | White Blood Cells (High Dose (50 mg)): 17.5 ± 4.92 10³ cells/µL | Creatinine (High Dose (50 mg), adjusted p=0.04 versus low dose): 1.53 ± 0.28 mg/dL | BE (Low Dose (15 mg)): -3.00 ± 5.48 mmol/L | HCO3 (Low Dose (15 mg)): 22.30 ± 4.08 mmol/L | Lactate (Low Dose (15 mg)): 11.84 ± 4.55 mmol/L | TCO2 (Low Dose (15 mg)): 23.75 ± 4.11 mmol/L | arterial blood gas pH (Low Dose (15 mg)): 7.35 ± 0.10 | pCO2 (Low Dose (15 mg)): 38.40 ± 5.69 mmHg | sO2 (Low Dose (15 mg)): 100 ± 0% | pO2 (Low Dose (15 mg), adjusted p=0.007 versus control): 191.75 ± 14.73 mmHg | Alanine Aminotransferase (Low Dose (15 mg)): 31.00 ± 36.77 U/L | Albumin (Low Dose (15 mg)): 0.50 ± 0.00 g/dL | Alkaline Phosphatase (Low Dose (15 mg)): 201.50 ± 10.61 U/L | Amylase (Low Dose (15 mg)): 234170 ± 286731 U/L | Aspartate Aminotransferase (Low Dose (15 mg)): 119.00 ± 80.61 U/L | Basophils (Low Dose (15 mg)): 0.20 ± 0.00% | Bicarbonate (Low Dose (15 mg)): 24.95 ± 2.62 mmol/L | Calculated Osmolality (Low Dose (15 mg)): 291.50 ± 10.61 | Cellular Hemoglobin (Optical) (Low Dose (15 mg)): 15.8 ± 0.42 pg | Cellular Hemoglobin Concentration Mean (Optical) (Low Dose (15 mg)): 30.45 ± 0.49 g/dL | Chloride (Low Dose (15 mg)): 108.50 ± 3.54 mmol/L | Creatinine (Low Dose (15 mg)): 2.01 ± 0.16 mg/dL | Eosinophils (Low Dose (15 mg)): 0.40 ± 0.00% | Glucose (Low Dose (15 mg)): 46.00 ± 26.87 mg/dL | Hematocrit (Low Dose (15 mg)): 29.35 ± 0.64% | Hemoglobin (Low Dose (15 mg)): 9.55 ± 0.35 g/dL | Hemoglobin Distribution Width (Low Dose (15 mg)): 1.74 ± 0.17 g/dL | Large Unstained Cells (Low Dose (15 mg)): 0.80 ± 0.00% | Lipase (Low Dose (15 mg)): 19059.00 ± 26899.76 U/L | Lymphocytes (Low Dose (15 mg)): 37.55 ± 18.46% | Mean Corpuscular Hemoglobin (Low Dose (15 mg)): 16.85 ± 0.49 pg | Mean Corpuscular Hemoglobin Concentration (Low Dose (15 mg)): 32.45 ± 0.49 g/dL | Mean Corpuscular Volume (Low Dose (15 mg)): 52.05 ± 0.78 fL | Mean Platelet Volume (Low Dose (15 mg)): 14.90 ± 2.69 fL | Monocytes (Low Dose (15 mg)): 1.05 ± 0.78% | Myoglobin (Low Dose (15 mg)): 425.50 ± 318.91 ng/mL | Neutrophils (Low Dose (15 mg)): 60.05 ± 17.61% | Platelets (Low Dose (15 mg)): 329 ± 228 10³ cells/µL | Potassium (Low Dose (15 mg)): 4.75 ± 0.78 mmol/L | Red Blood Cells (Low Dose (15 mg)): 5.64 ± 0.05 10^6 cells/μL | Red Cell Distribution Width (Low Dose (15 mg)): 15.25 ± 0.78% | Sodium (Low Dose (15 mg)): 145.00 ± 5.66 mmol/L | Total Protein (Low Dose (15 mg)): 4.05 ± 0.07 g/dL | White Blood Cells (Low Dose (15 mg)): 24 ± 18.9 10³ cells/µL | BUN (Low Dose (15 mg), adjusted p=0.03 versus control): 29.00 ± 2.83 mg/dL | mortalities (high dose 50 mg): no mortalities | metabolic / lactic acidosis after burn (high dose 50 mg, not statistically significant): may ameliorate metabolic acidosis; also recorded: may improve lactic acidosis | effect on mortality, high dose versus low dose (high dose 50 mg, not versus control): significantly out-performing the low dose group | resuscitation fluid required [1]: no statistically significant differences; also recorded: did not appear to reduce resuscitation volumes | urine output generated [1]: no statistically significant differences; also recorded: did not appear to reduce resuscitation volumes or improve urine output | mortalities (low dose 15 mg): three | time to mortality, low dose versus high dose (low dose 15 mg, p=0.044): significantly worse time to mortality
